# Data as given in patent publication US11713338B2, “Cyclic peptides multimers targeting α-4-β-7 integrin” (priority 2016, dated 2023).
# pIC50: −log10 of the molar value.
# Experiments:
# [1] = biological target: T1, recombinant integrin α4β7 (Homo sapiens, UniProt P13612+P26010, DEL724-798); assay: Integrin α4β7—MAdCAM-1 ELISA competition assay; type: binding; details: read-out: ELISA α4β7 Assay IC50
# T1 construct: purchased R&D Systems 5397-A3-050
# T1 sequence (P13612 34-970 limits assumed): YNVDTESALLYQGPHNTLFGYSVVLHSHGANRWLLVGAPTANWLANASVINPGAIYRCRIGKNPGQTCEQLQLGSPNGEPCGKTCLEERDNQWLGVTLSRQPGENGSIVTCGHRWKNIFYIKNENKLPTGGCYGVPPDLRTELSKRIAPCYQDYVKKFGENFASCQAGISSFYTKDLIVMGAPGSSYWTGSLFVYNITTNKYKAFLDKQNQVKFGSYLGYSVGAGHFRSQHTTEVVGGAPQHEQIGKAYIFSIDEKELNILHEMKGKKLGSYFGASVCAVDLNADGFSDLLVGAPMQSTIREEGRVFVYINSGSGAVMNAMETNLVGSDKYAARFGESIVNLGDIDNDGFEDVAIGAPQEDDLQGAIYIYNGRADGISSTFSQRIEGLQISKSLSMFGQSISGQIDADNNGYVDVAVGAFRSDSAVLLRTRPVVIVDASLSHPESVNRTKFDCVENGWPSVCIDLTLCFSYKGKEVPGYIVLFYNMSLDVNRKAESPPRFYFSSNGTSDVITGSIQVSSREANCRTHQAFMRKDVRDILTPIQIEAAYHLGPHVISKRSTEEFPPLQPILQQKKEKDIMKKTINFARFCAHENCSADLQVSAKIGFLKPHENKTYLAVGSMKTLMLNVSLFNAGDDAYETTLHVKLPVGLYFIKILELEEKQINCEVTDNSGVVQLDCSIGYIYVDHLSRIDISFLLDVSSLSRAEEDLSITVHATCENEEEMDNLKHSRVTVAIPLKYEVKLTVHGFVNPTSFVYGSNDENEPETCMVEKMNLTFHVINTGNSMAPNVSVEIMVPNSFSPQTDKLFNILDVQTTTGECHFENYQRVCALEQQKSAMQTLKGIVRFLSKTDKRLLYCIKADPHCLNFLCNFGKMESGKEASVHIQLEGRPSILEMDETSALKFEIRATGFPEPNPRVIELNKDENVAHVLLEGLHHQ
# T1 sequence (P26010 20-723 limits assumed): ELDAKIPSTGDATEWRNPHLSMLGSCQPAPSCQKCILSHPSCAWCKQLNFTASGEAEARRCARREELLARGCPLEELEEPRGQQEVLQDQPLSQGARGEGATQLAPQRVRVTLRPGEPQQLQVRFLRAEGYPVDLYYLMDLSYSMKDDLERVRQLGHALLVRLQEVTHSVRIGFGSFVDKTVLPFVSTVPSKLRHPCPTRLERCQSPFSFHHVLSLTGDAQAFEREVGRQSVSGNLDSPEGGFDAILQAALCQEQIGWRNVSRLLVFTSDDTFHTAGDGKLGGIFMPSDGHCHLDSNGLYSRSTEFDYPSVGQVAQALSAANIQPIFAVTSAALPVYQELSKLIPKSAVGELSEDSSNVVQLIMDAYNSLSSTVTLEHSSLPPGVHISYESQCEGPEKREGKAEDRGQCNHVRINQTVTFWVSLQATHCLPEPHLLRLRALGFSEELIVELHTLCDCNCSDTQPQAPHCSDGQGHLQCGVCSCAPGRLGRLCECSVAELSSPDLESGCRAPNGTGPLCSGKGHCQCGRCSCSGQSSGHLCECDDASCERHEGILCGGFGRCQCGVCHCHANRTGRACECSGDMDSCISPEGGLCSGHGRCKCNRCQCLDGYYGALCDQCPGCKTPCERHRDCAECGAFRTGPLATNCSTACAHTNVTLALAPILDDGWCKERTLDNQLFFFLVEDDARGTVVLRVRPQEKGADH
# [2] = biological target: T2, recombinant integrin α4β1 (Homo sapiens, UniProt P05556+P13612); assay: Integrin α4β1—VCAM-1 competition ELISA; type: binding; details: for ELISA Assay Ratio β1/β7: ratio of ELISA IC50s, α4β1 over α4β7; for pIC50: read-out: ELISA α4β1 Assay IC50
# T2 construct: purchased R&D Systems 5397-A3-050
# T2 sequence (P05556 21-728 limits assumed, one chain of several): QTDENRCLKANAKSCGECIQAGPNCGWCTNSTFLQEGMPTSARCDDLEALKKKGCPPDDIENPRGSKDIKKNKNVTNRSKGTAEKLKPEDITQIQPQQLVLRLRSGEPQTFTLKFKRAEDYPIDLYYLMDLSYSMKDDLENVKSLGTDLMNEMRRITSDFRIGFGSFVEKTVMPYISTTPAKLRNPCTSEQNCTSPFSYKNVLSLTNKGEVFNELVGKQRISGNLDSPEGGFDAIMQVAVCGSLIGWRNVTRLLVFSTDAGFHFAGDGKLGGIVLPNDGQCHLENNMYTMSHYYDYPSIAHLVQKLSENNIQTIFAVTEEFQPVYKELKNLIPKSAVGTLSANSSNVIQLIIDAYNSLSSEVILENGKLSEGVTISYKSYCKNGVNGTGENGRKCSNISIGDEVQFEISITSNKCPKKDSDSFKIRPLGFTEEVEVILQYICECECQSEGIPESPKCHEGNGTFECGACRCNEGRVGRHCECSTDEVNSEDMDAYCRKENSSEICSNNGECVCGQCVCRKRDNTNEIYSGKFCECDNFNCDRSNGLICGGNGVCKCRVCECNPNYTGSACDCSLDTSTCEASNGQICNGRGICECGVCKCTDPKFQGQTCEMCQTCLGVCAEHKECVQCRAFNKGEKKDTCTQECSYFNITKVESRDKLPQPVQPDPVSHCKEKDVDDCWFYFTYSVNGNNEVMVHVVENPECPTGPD
# Summary of the method: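 Detection of bound ligand used HRP-conjugated anti-human IgG Fc, 1 h with agitation at room temperature. This followed a 2 h room-temperature, 300 rpm equilibration of compound in the coated wells. Washes were done in 50 mM Tris, 100 mM NaCl, 1 mM MnCl2, 0.05% Tween.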
Compound,pIC50 [1],ELISA Assay Ratio β1/β7 [2],pIC50 [2],ELISA Assay Ratio b1/b7 ([2]; ratio of ELISA IC50 b1 to b7)
CC(C)C[C@@H]1NC(=O)c2ccc(-c3ccc(N4CCN(C(=O)CCCCCCCCCCC(=O)N5CCN(c6ccc(-c7ccc8cc7CNC(=O)[C@@H]7CCCN7[C@H](C(=O)NC(C)(C)C)[C@H](C)NC(=O)[C@H]([C@@H](C)O)NC(=O)[C@H](CC(=O)O)NC(=O)[C@H](CC(C)C)NC8=O)cc6)CC5)CC4)cc3)c(c2)CNC(=O)[C@@H]2CCCN2[C@H](C(=O)NC(C)(C)C)[C@H](C)NC(=O)[C@H]([C@@H](C)O)NC(=O)[C@H](CC(=O)O)NC1=O [Compound 392],7.74,0.3,8.20,
CC(C)C[C@@H]1NC(=O)c2ccc(-c3ccc(N4CCN(C(=O)C[C@@H](N)C(=O)N5CCN(c6ccc(-c7ccc8cc7CNC(=O)[C@@H]7CCCN7[C@H](C(=O)NC(C)(C)C)[C@H](C)NC(=O)[C@H]([C@@H](C)O)NC(=O)[C@H](CC(=O)O)NC(=O)[C@H](CC(C)C)NC8=O)cc6)CC5)CC4)cc3)c(c2)CNC(=O)[C@@H]2CCCN2[C@H](C(=O)NC(C)(C)C)[C@H](C)NC(=O)[C@H]([C@@H](C)O)NC(=O)[C@H](CC(=O)O)NC1=O [Compound 493],7.92,0.3,8.46,
CC(C)C[C@@H]1NC(=O)c2ccc(-c3ccc(N4CCN(C(=O)c5ccc(C(=O)N6CCN(c7ccc(-c8ccc9cc8CNC(=O)[C@@H]8CCCN8[C@H](C(=O)NC(C)(C)C)[C@H](C)NC(=O)[C@H]([C@@H](C)O)NC(=O)[C@H](CC(=O)O)NC(=O)[C@H](CC(C)C)NC9=O)cc7)CC6)s5)CC4)cc3)c(c2)CNC(=O)[C@@H]2CCCN2[C@H](C(=O)NC(C)(C)C)[C@H](C)NC(=O)[C@H]([C@@H](C)O)NC(=O)[C@H](CC(=O)O)NC1=O [Compound 470],8.27,0.2,9.00,
CC(C)C[C@@H]1NC(=O)c2ccc(-c3ccc(N4CCN(C(=O)C56CC7CC(C5)CC(C(=O)N5CCN(c8ccc(-c9ccc%10cc9CNC(=O)[C@@H]9CCCN9[C@H](C(=O)NC(C)(C)C)[C@H](C)NC(=O)[C@H]([C@@H](C)O)NC(=O)[C@H](CC(=O)O)NC(=O)[C@H](CC(C)C)NC%10=O)cc8)CC5)(C7)C6)CC4)cc3)c(c2)CNC(=O)[C@@H]2CCCN2[C@H](C(=O)NC(C)(C)C)[C@H](C)NC(=O)[C@H]([C@@H](C)O)NC(=O)[C@H](CC(=O)O)NC1=O [Compound 460],7.85,0.1,9.00,
CC(C)C[C@@H]1NC(=O)C[C@H](CCCCN)N(C)C(=O)[C@H](CCCCNC(=O)c2cc(C(=O)NCCCC[C@@H]3NC(=O)[C@@H]4CCCN4[C@H](C(=O)NC(C)(C)C)[C@H](C)NC(=O)[C@H]([C@@H](C)O)NC(=O)[C@H](CC(=O)O)NC(=O)[C@H](CC(C)C)NC(=O)C[C@H](CCCCN)N(C)C3=O)cc(C(=O)NCCCC[C@@H]3NC(=O)[C@@H]4CCCN4[C@H](C(=O)NC(C)(C)C)[C@H](C)NC(=O)[C@H]([C@@H](C)O)NC(=O)[C@H](CC(=O)O)NC(=O)[C@H](CC(C)C)NC(=O)C[C@H](CCCCN)N(C)C3=O)c2)NC(=O)[C@@H]2CCCN2[C@H](C(=O)NC(C)(C)C)[C@H](C)NC(=O)[C@H]([C@@H](C)O)NC(=O)[C@H](CC(=O)O)NC1=O [Compound 538],8.00,1.3,7.89,
CC(C)C[C@@H]1NC(=O)C[C@H](CCCCN)N(C)C(=O)[C@H](CCCCNC(=O)c2ccccc2-c2ccccc2C(=O)NCCCC[C@@H]2NC(=O)[C@@H]3CCCN3[C@H](C(=O)NC(C)(C)C)[C@H](C)NC(=O)[C@H]([C@@H](C)O)NC(=O)[C@H](CC(=O)O)NC(=O)[C@H](CC(C)C)NC(=O)C[C@H](CCCCN)N(C)C2=O)NC(=O)[C@@H]2CCCN2[C@H](C(=O)NC(C)(C)C)[C@H](C)NC(=O)[C@H]([C@@H](C)O)NC(=O)[C@H](CC(=O)O)NC1=O [Compound 535],8.07,0.9,8.01,
COc1cc(C(=O)N2CCN(c3ccc(-c4ccc5cc4CNC(=O)[C@@H]4CCCN4[C@H](C(=O)NC(C)(C)C)[C@H](C)NC(=O)[C@H]([C@@H](C)O)NC(=O)[C@H](CC(=O)O)NC(=O)[C@H](CC(C)C)NC5=O)cc3)CC2)cc(-c2ccc(C(=O)N3CCN(c4ccc(-c5ccc6cc5CNC(=O)[C@@H]5CCCN5[C@H](C(=O)NC(C)(C)C)[C@H](C)NC(=O)[C@H]([C@@H](C)O)NC(=O)[C@H](CC(=O)O)NC(=O)[C@H](CC(C)C)NC6=O)cc4)CC3)cc2F)c1 [Compound 464],7.21,,7.66,
CC(C)C[C@@H]1NC(=O)c2ccc(-c3ccc(N4CCN(C(=O)[C@H](CCCCNC(=O)CCCCCC(=O)NCCCC[C@H](NC(=O)OCc5ccccc5)C(=O)N5CCN(c6ccc(-c7ccc8cc7CNC(=O)[C@@H]7CCCN7[C@H](C(=O)NC(C)(C)C)[C@H](C)NC(=O)[C@H]([C@@H](C)O)NC(=O)[C@H](CC(=O)O)NC(=O)[C@H](CC(C)C)NC8=O)cc6)CC5)NC(=O)OCc5ccccc5)CC4)cc3)c(c2)CNC(=O)[C@@H]2CCCN2[C@H](C(=O)NC(C)(C)C)[C@H](C)NC(=O)[C@H]([C@@H](C)O)NC(=O)[C@H](CC(=O)O)NC1=O [Compound 498],7.92,,8.52,
CC(C)C[C@@H]1NC(=O)c2ccc(-c3ccc(N4CCN(C(=O)c5cc(C(=O)N6CCN(c7ccc(-c8ccc9cc8CNC(=O)[C@@H]8CCCN8[C@H](C(=O)NC(C)(C)C)[C@H](C)NC(=O)[C@H]([C@@H](C)O)NC(=O)[C@H](CC(=O)O)NC(=O)[C@H](CC(C)C)NC9=O)cc7)CC6)cc(C(=O)N6CCN(c7ccc(-c8ccc9cc8CNC(=O)[C@@H]8CCCN8[C@H](C(=O)NC(C)(C)C)[C@H](C)NC(=O)[C@H]([C@@H](C)O)NC(=O)[C@H](CC(=O)O)NC(=O)[C@H](CC(C)C)NC9=O)cc7)CC6)c5)CC4)cc3)c(c2)CNC(=O)[C@@H]2CCCN2[C@H](C(=O)NC(C)(C)C)[C@H](C)NC(=O)[C@H]([C@@H](C)O)NC(=O)[C@H](CC(=O)O)NC1=O [Compound 520],8.20,,8.92,
CC(C)C[C@@H]1NC(=O)c2ccc(-c3ccc(N4CCN(C(=O)c5ccc(-c6cccc(C(=O)N7CCN(c8ccc(-c9ccc%10cc9CNC(=O)[C@@H]9CCCN9[C@H](C(=O)NC(C)(C)C)[C@H](C)NC(=O)[C@H]([C@@H](C)O)NC(=O)[C@H](CC(=O)O)NC(=O)[C@H](CC(C)C)NC%10=O)cc8)CC7)n6)nc5)CC4)cc3)c(c2)CNC(=O)[C@@H]2CCCN2[C@H](C(=O)NC(C)(C)C)[C@H](C)NC(=O)[C@H]([C@@H](C)O)NC(=O)[C@H](CC(=O)O)NC1=O [Compound 466],7.85,0.3,8.38,
CC(C)C[C@@H]1NC(=O)C[C@H](CCCCN)N(C)C(=O)[C@H](CCCCN)NC(=O)[C@@H]2CCCN2[C@H](C(=O)NC(C)(C)C)[C@H](C)NC(=O)[C@H]([C@@H](C)O)NC(=O)[C@H](CC(=O)O)NC1=O [Compound 456],,,,1.5
CC(C)C[C@@H]1NC(=O)c2ccc(-c3ccc(N4CCN(CCC(=O)N5CCN(c6ccc(-c7ccc8cc7CNC(=O)[C@@H]7CCCN7[C@H](C(=O)NC(C)(C)C)[C@H](C)NC(=O)[C@H]([C@@H](C)O)NC(=O)[C@H](CC(=O)O)NC(=O)[C@H](CC(C)C)NC8=O)cc6)CC5)CC4)cc3)c(c2)CNC(=O)[C@@H]2CCCN2[C@H](C(=O)NC(C)(C)C)[C@H](C)NC(=O)[C@H]([C@@H](C)O)NC(=O)[C@H](CC(=O)O)NC1=O [Compound 482],,,8.82,
